Where a name gives a salt, the structure may show the parent alone.
How the values were obtained:
Format in all cases: biochemical
[1] = system: T1, membrane-bound D-glucose dehydrogenase (GlcDH) from Arthrobacter globiformis C224; assay: single-substrate kinetics, Lineweaver-Burk; conditions: pH 5.0 (Table 5); general assay uses ferricyanide as electron acceptor in McIlvaine buffer, stated there as pH 3.0
T1 construct: gene gcd; native, purified from membrane fraction of C224 (Triton X-114, precipitations, hydroxylapatite); 87 kDa, single SDS-PAGE band, no subunits
Excerpt: single-substrate kinetics, Lineweaver-Burk on membrane-bound D-glucose dehydrogenase (GlcDH) from Arthrobacter globiformis […]

[2] = system: T1, membrane-bound D-glucose dehydrogenase (GlcDH) from Arthrobacter globiformis C224; assay: dual-substrate initial velocity kinetics (ping-pong); conditions: artificial electron acceptor; glucose as co-substrate (5-80 mM), PMS 50-200 µM
[3] = biological target: T1, membrane-bound D-glucose dehydrogenase (GlcDH) from Arthrobacter globiformis C224; assay: steady-state product inhibition kinetics, Lineweaver-Burk; conditions: competitive towards PMS; PMS varied at 33 mM glucose, gluconic acid 0-200 mM; read-out: inhibition constant

Row | Compound | Km [1] | other results
1 | OC[C@H]1OC(O)[C@H](O)[C@@H](O)[C@H]1O (stereo partly drawn) [D-galactose] | 460 ± 20 µM | 
2 | OC[C@H]1OC(O)[C@H](O)[C@@H](O)[C@@H]1O (stereo partly drawn) [D-glucose] | 210 ± 10 µM | 
3 | OC1OC[C@@H](O)[C@H](O)[C@H]1O (stereo partly drawn) [D-xylose] | 340 ± 20 µM | 
4 | C[n+]1c2ccccc2nc2ccccc21 [N-methylphenazonium methyl sulfate] |  | Km [2]: 400 µM
5 | O=C(O)[C@H](O)[C@@H](O)[C@H](O)[C@H](O)CO [gluconic acid] |  | Ki [3]: 11.4 mM
6 | OC[C@H]1O[C@H](O[C@H]2[C@H](O)[C@@H](O)C(O)O[C@@H]2CO)[C@H](O)[C@@H](O)[C@@H]1O (stereo partly drawn) [maltose] | 590 ± 30 µM | 

— article PMC6272208, “2-Keto-D-Gluconate-Yielding Membrane-Bound D-Glucose Dehydrogenase from Arthrobacter globiformis C224: Purification and Characterization” (Molecules, 2015)
